Values quoted from earlier work, collected in patent US20050107279A1, “Emulsion composition” (Unilever Home & Personal Care USA, Division of Conopco, Inc., priority 2003, published 2005).

How the values were obtained:
[1] = AOT; range as per Sabatini et al. 1996
[2] = hydrophobic liquid
[3] = hydrophobic liquid; remark: listed apart in the source

For `CCCCC(CC)COC(=O)CC(C(=O)OCC(CC)CCCC)S(=O)(=O)[O-].[Na+]` (stereo not drawn) [AOT, Aerosol OT], the HLB [1] is listed as 10-14.9).

For `CCCCCCCC` [Octane], the “Log P” value [2] is given as “(Log P = 4.7)” and the solubility in water [3] is given as “Solubility = 7 × 10^−5%”.
